Measured values: PubChem BioAssay AID192 (DTP/NCI, 2004)
Values joined by “and” are separate entries in the source; they are usually repeats but may differ in a detail not shown here. Equal entries are not always repeated. Inconclusive results and toxic doses are left out.

Test system: BDF1 mice, B16 melanoma ip, median survival T/C
Experiment: NCI In Vivo Anticancer Drug Screen. Data for tumor model B16 Melanoma (intraperitoneal) in B6D2F1 (BDF1) mice
Conditions: endpoint: median survival time, higher = longer survival
In short: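 Survival or tumor size is measured after treatment of tumor-bearing mice and normalised to the vehicle-treated control group.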

[1] = dose: 25.0 mg/kg/injection, schedule: Q01DX009 (ip), vehicle: Klucel (hydroxypropylcellulose) (HPC)
[2] = dose: 100.0 mg/kg/injection, schedule: Q01DX009 (ip), vehicle: saline with Tween-80
[3] = dose: 200.0 mg/kg/injection, schedule: Q01DX009 (ip), vehicle: saline with Tween-80
[4] = dose: 5.0 mg/kg/injection, schedule: Q01DX009 (ip), vehicle: saline
[5] = dose: 25.0 mg/kg/injection, schedule: Q01DX009 (ip), vehicle: saline with Tween-80
[6] = dose: 50.0 mg/kg/injection, schedule: Q01DX009 (ip), vehicle: saline with Tween-80
[7] = dose: 100.0 mg/kg/injection, schedule: Q01DX009 (ip), vehicle: Klucel (hydroxypropylcellulose) (HPC)
[8] = dose: 50.0 mg/kg/injection, schedule: Q01DX009 (ip), vehicle: Klucel (hydroxypropylcellulose) (HPC)

In the case of `CC1CCC(NC(=O)N(CCCl)N=O)CC1` (stereo not drawn), the T/C (dose: 0.5 mg/kg/injection, schedule: Q01DX009 (ip), vehicle: other) is reported as 104 % of control, the T/C (dose: 0.5 mg/kg/injection, schedule: Q01DX009 (ip), vehicle: saline + alcohol) is reported as 95 % of control and the T/C (dose: 1.0 mg/kg/injection, schedule: Q01DX009 (ip), vehicle: other) is reported as 112 % of control. The T/C (dose: 1.0 mg/kg/injection, schedule: Q01DX009 (ip), vehicle: saline + alcohol) was 113 % of control, the T/C (dose: 1.9 mg/kg/injection, schedule: Q01DX001 (ip), vehicle: saline) was 106 % of control and the T/C (dose: 2.0 mg/kg/injection, schedule: Q01DX009 (ip), vehicle: distilled water + Tween-80 + alcohol) was 103 % of control. The T/C (dose: 2.0 mg/kg/injection, schedule: Q01DX009 (ip), vehicle: other) was 111 % of control, the T/C (dose: 2.0 mg/kg/injection, schedule: Q01DX009 (ip), vehicle: saline + alcohol) was 118 % of control and the T/C (dose: 2.5 mg/kg/injection, schedule: Q04DX003 (ip), vehicle: other) was 109 % of control. For the same molecule, the T/C (dose: 3.75 mg/kg/injection, schedule: Q01DX001 (ip), vehicle: saline) was 117 % of control, the T/C (dose: 3.75 mg/kg/injection, schedule: Q04DX003 (ip), vehicle: other) was 112 % of control and 123 % of control and the T/C (dose: 4.0 mg/kg/injection, schedule: Q01DX009 (ip), vehicle: distilled water + Tween-80 + alcohol) was 108 % of control. For the same molecule, the T/C (dose: 4.0 mg/kg/injection, schedule: Q01DX009 (ip), vehicle: saline + alcohol) was 150 % of control, the T/C (dose: 5.0 mg/kg/injection, schedule: Q04DX003 (ip), vehicle: other) was 124 % of control and the T/C (dose: 7.5 mg/kg/injection, schedule: Q04DX003 (ip), vehicle: other) was 212 % of control. For the same molecule, the T/C (dose: 8.0 mg/kg/injection, schedule: Q01DX009 (ip), vehicle: distilled water + Tween-80 + alcohol) was 184 % of control, the T/C (dose: 8.0 mg/kg/injection, schedule: Q01DX009 (ip), vehicle: other) was 200 % of control and the T/C (dose: 8.0 mg/kg/injection, schedule: Q01DX009 (ip), vehicle: saline + alcohol) was 72 % of control. The T/C (dose: 9.0 mg/kg/injection, schedule: Q04DX002 (ip), vehicle: Klucel (hydroxypropylcellulose) (HPC)) was 121 % of control, the T/C (dose: 10.0 mg/kg/injection, schedule: Q04DX003 (ip), vehicle: other) was 189 % of control and the T/C (dose: 15.0 mg/kg/injection, schedule: Q04DX002 (ip), vehicle: Klucel (hydroxypropylcellulose) (HPC)) was 150 % of control. For the same molecule, the T/C (dose: 15.0 mg/kg/injection, schedule: Q04DX003 (ip), vehicle: other) was 94 % of control and 272 % of control, the T/C (dose: 16.0 mg/kg/injection, schedule: Q01DX009 (ip), vehicle: distilled water + Tween-80 + alcohol) was 51 % of control and the T/C (dose: 16.0 mg/kg/injection, schedule: Q01DX009 (ip), vehicle: other) was 50 % of control. The T/C (dose: 16.0 mg/kg/injection, schedule: Q01DX009 (ip), vehicle: saline + alcohol) was 45 % of control, the T/C (dose: 20.0 mg/kg/injection, schedule: Q04DX003 (ip), vehicle: other) was 263 % of control and the T/C (dose: 24.0 mg/kg/injection, schedule: Q01DX001 (ip), vehicle: distilled water + Tween-80 + alcohol) was 161 % of control. For the same molecule, the T/C (dose: 25.0 mg/kg/injection, schedule: Q04DX002 (ip), vehicle: Klucel (hydroxypropylcellulose) (HPC)) was 196 % of control, the T/C (dose: 30.0 mg/kg/injection, schedule: Q04DX003 (ip), vehicle: other) was 50 % of control and 55 % of control and the T/C (dose: 32.0 mg/kg/injection, schedule: Q01DX009 (ip), vehicle: other) was 37 % of control. The T/C (dose: 32.0 mg/kg/injection, schedule: Q01DX009 (ip), vehicle: saline + alcohol) was 31 % of control, the T/C (dose: 40.0 mg/kg/injection, schedule: Q01DX001 (ip), vehicle: distilled water + Tween-80 + alcohol) was 182 % of control and the T/C (dose: 42.0 mg/kg/injection, schedule: Q04DX002 (ip), vehicle: Klucel (hydroxypropylcellulose) (HPC)) was 213 % of control. The T/C (dose: 64.0 mg/kg/injection, schedule: Q01DX009 (ip), vehicle: other) was 27 % of control, the T/C (dose: 64.0 mg/kg/injection, schedule: Q01DX009 (ip), vehicle: saline + alcohol) was 26 % of control and the T/C (dose: 66.7 mg/kg/injection, schedule: Q01DX001 (ip), vehicle: distilled water + Tween-80 + alcohol) was 63 % of control.
In the case of `CCCCNC(C)(C)C(SSSC(c1ccco1)C(C)(C)NCCCC)c1ccco1` (stereo not drawn), the T/C (dose: 3.13 mg/kg/injection, schedule: Q01DX009 (ip), vehicle: carboxymethylcellulose (CMC)) is reported as 102 % of control, the T/C (dose: 6.25 mg/kg/injection, schedule: Q01DX009 (ip), vehicle: carboxymethylcellulose (CMC)) is reported as 102 % of control and the T/C (dose: 12.5 mg/kg/injection, schedule: Q01DX009 (ip), vehicle: carboxymethylcellulose (CMC)) is reported as 95 % of control. For the same molecule, the T/C [1] was 91 % of control and the T/C (dose: 25.0 mg/kg/injection, schedule: Q01DX009 (ip), vehicle: carboxymethylcellulose (CMC)) was 86 % of control.
In the case of `CC(=O)OCC(CCC(C)C)=C(C)C`, the T/C (dose: 25.0 mg/kg/injection, schedule: Q04DX003 (ip), vehicle: saline with Tween-80) is reported as 104 % of control, the T/C (dose: 50.0 mg/kg/injection, schedule: Q04DX003 (ip), vehicle: saline with Tween-80) is reported as 104 % of control and the T/C [2] is reported as 97 % of control. The T/C (dose: 100.0 mg/kg/injection, schedule: Q04DX003 (ip), vehicle: saline with Tween-80) was 86 % of control and 97 % of control and the T/C [3] was 104 % of control.
In the case of `Nc1ccccc1.[C-]#[O+].[C-]#[O+].[C-]#[O+].[C-]#[O+].[C-]#[O+].[Cr]`, the T/C (dose: 2.5 mg/kg/injection, schedule: Q01DX009 (ip), vehicle: saline) is reported as 95 % of control, the T/C [4] is reported as 114 % of control and the T/C (dose: 10.0 mg/kg/injection, schedule: Q01DX009 (ip), vehicle: saline) is reported as 108 % of control.
For `O=C(COc1ccc(Cl)cc1)Nc1cc(C(F)(F)F)ccc1Cl`, the T/C [5] was 103 % of control, the T/C [6] was 96 % of control and the T/C [2] was 105 % of control.
In the case of `COc1ccccc1C(C#N)N1CCCN(C(C#N)c2ccccc2OC)C1c1cc(Cl)cc(Cl)c1O` (stereo not drawn), the T/C (dose: 6.25 mg/kg/injection, schedule: Q01DX009 (ip), vehicle: saline with Tween-80) is reported as 104 % of control, the T/C (dose: 12.5 mg/kg/injection, schedule: Q01DX009 (ip), vehicle: saline with Tween-80) is reported as 101 % of control and the T/C [5] is reported as 103 % of control. For the same molecule, the T/C [6] was 91 % of control and 124 % of control.
For `O=c1[nH]c(=O)n(C2CC(O)C(CO)O2)cc1F` (stereo not drawn), the T/C [4] was 92 % of control, the T/C [5] was 173 % of control and the T/C [2] was 183 % of control. For the same molecule, the T/C [3] was 86 % of control.
In the case of `CC1(C(=O)O)CCC2(C)CCC3(C)C(=CC(=O)C4C5(C)CCC(OC6OC(C(=O)O)C(O)C(O)C6OC6OC(C(=O)O)C(O)C(O)C6O)C(C)(C)C5CCC43C)C2C1` (stereo not drawn), the T/C (dose: 100.0 mg/kg/injection, schedule: Q01DX009 (ip), vehicle: saline) is reported as 106 % of control, the T/C (dose: 200.0 mg/kg/injection, schedule: Q01DX009 (ip), vehicle: saline) is reported as 101 % of control and the T/C (dose: 400.0 mg/kg/injection, schedule: Q01DX009 (ip), vehicle: saline) is reported as 102 % of control.
With `CCSc1nc2nccnc2c(=O)[nH]1` the T/C [7] was 102 % of control and the T/C (dose: 200.0 mg/kg/injection, schedule: Q01DX009 (ip), vehicle: Klucel (hydroxypropylcellulose) (HPC)) was 97 % of control.
`COC(=O)C(Cc1c[nH]c2ccccc12)NC(=O)C(NC(=O)OC(C)(C)C)C(C)C` (stereo not drawn) was tested, and the T/C [8] was 91 % of control.
`OCCOCCN1CCN(CCCN2c3ccccc3Sc3ccc(C(F)(F)F)cc32)CC1` was tested, and the T/C (dose: 0.8 mg/kg/injection, schedule: Q01DX009 (ip), vehicle: saline) was 106 % of control, the T/C (dose: 1.6 mg/kg/injection, schedule: Q01DX009 (ip), vehicle: saline) was 102 % of control and the T/C (dose: 3.2 mg/kg/injection, schedule: Q01DX009 (ip), vehicle: saline) was 102 % of control. The T/C (dose: 6.4 mg/kg/injection, schedule: Q01DX009 (ip), vehicle: saline) was 105 % of control, the T/C (dose: 3.1 micrograms/kg/injection, schedule: Q01DX009 (ip), vehicle: saline) was 108 % of control and the T/C (dose: 6.2 micrograms/kg/injection, schedule: Q01DX009 (ip), vehicle: saline) was 111 % of control. The T/C (dose: 12.5 micrograms/kg/injection, schedule: Q01DX009 (ip), vehicle: saline) was 123 % of control, the T/C (dose: 25.0 micrograms/kg/injection, schedule: Q01DX009 (ip), vehicle: saline) was 111 % of control and the T/C (dose: 50.0 micrograms/kg/injection, schedule: Q01DX009 (ip), vehicle: saline) was 109 % of control. The T/C (dose: 100.0 micrograms/kg/injection, schedule: Q01DX009 (ip), vehicle: saline) was 110 % of control, the T/C (dose: 200.0 micrograms/kg/injection, schedule: Q01DX009 (ip), vehicle: saline) was 110 % of control and the T/C (dose: 400.0 micrograms/kg/injection, schedule: Q01DX009 (ip), vehicle: saline) was 116 % of control.
In the case of `Clc1ccc(NC2=NCCCS2)c2ccccc12`, the T/C [1] is reported as 105 % of control, the T/C [8] is reported as 92 % of control and the T/C [7] is reported as 95 % of control.
With `N=C(N)c1ccc(/C=C/c2ccc(C(=N)N)cc2)cc1` the T/C (dose: 16.0 mg/kg/injection, schedule: Q01DX009 (ip), vehicle: saline with Tween-80) was 98 % of control and the T/C (dose: 32.0 mg/kg/injection, schedule: Q01DX009 (ip), vehicle: saline with Tween-80) was 93 % of control.
